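Tested at 5 concentrations; 48 h exposure; 96-well plates; endpoints linearly interpolated, else capped at highest concentration. GI50 marks 50% less growth.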 The source made the active and inactive calls. No stated cut-off is given here; in the data, active = GI50 up to about 1.1 µM and inactive = higher. Where a SMILES comes first, the peptide text is derived from it. [ ]: non-standard residue; d: D form. The star is where a group is joined. Bn2Val = CC(C)[C@@H](C(=O)*)N(Cc1ccccc1)Cc1ccccc1; NHPiperonyl = c1cc2c(cc1CN*)OCO2; NMeV = CN[C@H](C(=O)O)C(C)C; dNMeA = CN[C@H](C)C(=O)O
Assays:
Test in all cases: DTP human tumour cell line panel, 48 h
SK-OV-3 = tested on: SK-OV-3
ACHN = tested on: ACHN
IGROV-1 = tested on: IGROV-1
MOLT-4 = tested on: MOLT-4
KM12 = tested on: KM12
UACC-257 = tested on: UACC-257
EKVX = tested on: EKVX
786-0 = tested on: 786-0
CAKI-1 = tested on: CAKI-1
UO-31 = tested on: UO-31
SK-MEL-5 = tested on: SK-MEL-5
PC-3 = tested on: PC-3
MDA-N = tested on: MDA-N
LOX IMVI = tested on: LOX IMVI
OVCAR-3 = tested on: OVCAR-3
HL-60 = tested on: HL-60
HOP-62 = tested on: HOP-62
SF-539 = tested on: SF-539
DU-145 = tested on: DU-145
Malme-3M = tested on: Malme-3M

Measured: GI50

Cc1cc2c(cc1Cl)SC(NNC1=NCCN1)=NS2(=O)=O
inactive: SK-OV-3 > 10 µM | ACHN > 10 µM | IGROV-1 > 10 µM | MOLT-4 > 10 µM | KM12 > 10 µM | UACC-257 > 10 µM | EKVX > 10 µM | 786-0 > 10 µM | CAKI-1 > 10 µM | UO-31 > 10 µM | SK-MEL-5 > 10 µM | PC-3 > 10 µM | MDA-N > 10 µM | LOX IMVI > 10 µM | OVCAR-3 > 10 µM | HL-60 > 10 µM | HOP-62 > 10 µM | SF-539 > 10 µM | DU-145 > 10 µM | Malme-3M > 10 µM

CCCCC(=O)NC1(c2cc3ccccc3s2)CCCCC1
inactive: SK-OV-3 > 100 µM | ACHN > 100 µM | IGROV-1 > 100 µM | KM12 > 100 µM | UACC-257 > 100 µM | EKVX > 100 µM | 786-0 > 100 µM | CAKI-1 > 100 µM | UO-31 > 100 µM | SK-MEL-5 > 100 µM | PC-3 > 100 µM | MDA-N > 100 µM | LOX IMVI > 100 µM | OVCAR-3 > 100 µM | HL-60 4.89 µM | HOP-62 > 100 µM | SF-539 33.2 µM | DU-145 > 100 µM | Malme-3M > 100 µM

CC(=O)N1C(=O)/C(=C\C(=O)c2ccc(Cl)cc2)c2ccccc21
inactive: SK-OV-3 22.8 µM | ACHN 9.31 µM | IGROV-1 16.7 µM | MOLT-4 3.43 µM | KM12 16.9 µM | UACC-257 14.9 µM | EKVX 17.6 µM | 786-0 4.27 µM | CAKI-1 13.3 µM | UO-31 15.4 µM | SK-MEL-5 19.2 µM | PC-3 11.4 µM | MDA-N 14.4 µM | LOX IMVI 2.3 µM | OVCAR-3 10.1 µM | HL-60 2.28 µM | HOP-62 20.1 µM | SF-539 12.2 µM | DU-145 17.1 µM | Malme-3M 16.3 µM

CN(C)N1C(=O)SCC(c2ccccc2)(c2ccccc2)C1=O
inactive: SK-OV-3 > 100 µM | ACHN > 100 µM | MOLT-4 > 100 µM | KM12 > 100 µM | UACC-257 > 100 µM | EKVX > 100 µM | 786-0 > 100 µM | CAKI-1 > 100 µM | UO-31 > 100 µM | SK-MEL-5 > 100 µM | PC-3 > 100 µM | MDA-N > 100 µM | LOX IMVI > 100 µM | OVCAR-3 > 100 µM | HL-60 > 100 µM | HOP-62 > 100 µM | SF-539 > 100 µM | DU-145 > 100 µM | Malme-3M > 100 µM

CC(C)[C@H](NC(=O)[C@H](C(C)C)N(Cc1ccccc1)Cc1ccccc1)C(=O)N(C)[C@H](C(=O)N1CCC[C@H]1C(=O)N(C)[C@H](C)C(=O)NCc1ccc2c(c1)OCO2)C(C)C (Bn2Val-V[NMeV]P[dNMeA]-NHPiperonyl)
inactive: SK-OV-3 41.6 µM | ACHN 8.11 µM | IGROV-1 3.95 µM | MOLT-4 2.73 µM | KM12 4.83 µM | UACC-257 5.56 µM | EKVX 4.98 µM | 786-0 13.6 µM | CAKI-1 19.9 µM | UO-31 21.6 µM | PC-3 3.35 µM | MDA-N 12.1 µM | LOX IMVI 5.9 µM | OVCAR-3 5.01 µM | HL-60 1.17 µM | HOP-62 29.9 µM | SF-539 3.37 µM | DU-145 11.6 µM | Malme-3M 21.9 µM

S=C(c1c[nH]c2ccccc12)N1CCN(Cc2ccccc2)CC1
inactive: SK-OV-3 20.7 µM | ACHN 25.5 µM | IGROV-1 12.7 µM | MOLT-4 16.6 µM | KM12 17.2 µM | UACC-257 20.7 µM | EKVX 18 µM | 786-0 15.7 µM | CAKI-1 20.1 µM | UO-31 6.61 µM | SK-MEL-5 12.1 µM | PC-3 15.7 µM | MDA-N 15.6 µM | LOX IMVI 15.7 µM | OVCAR-3 14.4 µM | HL-60 18.5 µM | HOP-62 18.5 µM | SF-539 18.6 µM | DU-145 17.5 µM | Malme-3M 19.5 µM

CC(=O)OC1=NN=C2COC(c3ccccc3OC(C)=O)=NN2C1
inactive: SK-OV-3 > 50 µM | ACHN > 50 µM | IGROV-1 > 50 µM | KM12 31.5 µM | UACC-257 20.4 µM | EKVX > 50 µM | 786-0 24.4 µM | CAKI-1 > 50 µM | UO-31 38.2 µM | SK-MEL-5 9.75 µM | PC-3 20.1 µM | MDA-N > 50 µM | LOX IMVI 24.1 µM | OVCAR-3 > 50 µM | HL-60 > 50 µM | HOP-62 > 50 µM | SF-539 > 50 µM | DU-145 > 50 µM | Malme-3M 27.2 µM
